Where two headings read alike, the source gives them in different places. Values belong to the compound of their own block, whether it stands above or below them.
Experiments:
[1] = tested on: Petroselinum xyloglucan endotransglucosylase (XET) activity; experiment: Fluorescent dot-blot XET screen (cellulose-bound xyloglucan + XGO–SR on paper, in the dark); assay type: biochemical, parsley
Experimental: For inhibitor screening, 53 new 96-well plates were set up with 50 μl of parsley enzyme extract per well, and 1 μl of DMSO-solubilised xenobiotic was added to each well, giving concentrations of 0.4 mg/ml (EDI collection, with exceptions noted in Table S2) or 50 μM (LATCA collection) and 2% v/v DMSO.
XET test-paper was prepared as before ([Fry, 1997]) and 112 × 75-mm sheets were attached to cellulose acetate overhead-projector sheets with ‘Spraymount’ adhesive. Each sheet was placed on a pre-cooled glass plate in a cold room at 4 °C.
For inhibitor screening (Fig. 2), 4 μl of a parsley enzyme/xenobiotic mixture was applied to each position on a sheet. Incubation at 20 °C for 2 h, washing, drying and photography were conducted essentially as above.

[2] = tested on: parsley XET activity; experiment: Radiochemical XET assay (soluble xyloglucan + [3H]XXXGol); assay type: biochemical; details: for inhibition of XET activity: additional LATCA compounds re-tested radiochemically at 200 μM; for effect on XET activity in radiochemical assays (as summarised in the discussion): free solution; for effect on XET activity, radiochemical re-screen of 206 compounds (mostly LATCA): LATCA approx. 25 μM, EDI approx. 200 μg/ml, listed in order of decreasing effectiveness; for effect on XET activity, first radiochemical re-screen of EDI hits: most xenobiotics at 200 μg/ml (≈200–800 μM)
Experimental: The parsley enzyme concentration was held constant, and the xenobiotics were tested at 200, 160, 120, 80, 40, 20, 10 and 0 μg/ml (concentrations in the final reaction mixture). Other details were as above.
The riboflavin-free controls received the same DMSO concentration.

[3] = EDI 0.4 mg/ml, LATCA 50 μM, 2 h, dark, cellulose-bound xyloglucan
[4] = soluble xyloglucan, laboratory light

Compound: O=C(O)c1cc[c]([Hg][Cl])cc1 [4-chloromercuribenzoic acid]
effect on XET activity in dot-blot (inhibition / promotion) [1, 3]: strong inhibitor
effect on XET activity, radiochemical re-screen of 206 compounds (mostly LATCA) [2]: inhibition
XET activity inhibited ([2]; by ∼50 μM, little further inhibition up to ∼400 μM): 50–60%

Compound: Cc1ccc(SCc2ccc(C(=O)NCc3ccccn3)cc2)cc1 [4-{[(4-methylphenyl)thio]methyl}-N-(2-pyridinylmethyl)-benzamide]
effect on XET activity, radiochemical re-screen of 206 compounds (mostly LATCA) [2]: inhibition

Compound: O=C1c2cccc3c(Br)ccc(c23)C(=O)N1O [6-bromo-2-hydroxy-1H-benzo[de]isoquinoline-1,3(2H)-dione]
effect on XET activity, radiochemical re-screen of 206 compounds (mostly LATCA) [2]: inhibition

Compound: Cc1cccc(OCC(=O)N/N=C/c2ccc(Br)o2)c1 [N′-(1E)-(5-bromofuran-2-yl)methylidene-2-(3-methylphenoxy)acetohydrazide]
inhibition of XET activity [2]: 24%

Compound: Cc1cc(C(=C2C=CC(=Nc3ccc(S(=O)(=O)O)cc3)C=C2)c2ccc(Nc3ccc(S(=O)(=O)O)cc3)cc2)cc(S(=O)(=O)O)c1N [aniline blue]
effect on XET activity in radiochemical assays (as summarised in the discussion) [2, 4]: inhibiting XET activity

Compound: CCOc1ccc(Nc2ccc(C(=C3C=CC(=[N+](CC)Cc4cccc(S(=O)(=O)[O-])c4)C=C3)c3ccc(N(CC)Cc4cccc(S(=O)(=O)O)c4)cc3)cc2)cc1 [brilliant blue R]
effect on XET activity, radiochemical re-screen of 206 compounds (mostly LATCA) [2]: inhibition

Compound: Cc1cc(C2(c3cc(C)c(O)c(Br)c3)OS(=O)(=O)c3ccccc32)cc(Br)c1O [bromocresol purple]
effect on XET activity, radiochemical re-screen of 206 compounds (mostly LATCA) [2]: inhibition

Compound: CC(C)C(C)C(O)C(O)C(C)C1CCC2C3COC(=O)C4CC(O)C(O)CC4(C)C3CCC12C (stereo not shown) [epibrassinolide]
inhibition of XET activity [2]: 22%

Compound: C=C[C@@]1(C)CC(=O)[C@]2(O)[C@@]3(C)[C@@H](O)CCC(C)(C)[C@@H]3[C@H](O)[C@H](OC(C)=O)[C@@]2(C)O1 [forskolin]
effect on XET activity in dot-blot (inhibition / promotion) [1, 3]: stimulatory

Compound: OCc1c[nH]c2ccccc12 [indole 3-carbinol]
effect on XET activity in dot-blot (inhibition / promotion) [1, 3]: stimulatory

Compound: C[C@@H]1C/C=C/C=C/C=C/C=C/[C@H](O[C@@H]2O[C@H](C)[C@@H](O)[C@H](N)[C@@H]2O)C[C@@H]2O[C@](O)(C[C@@H](O)C[C@H]3O[C@@H]3/C=C/C(=O)O1)C[C@H](O)[C@H]2C(=O)O [natamycin]
effect on XET activity in dot-blot (inhibition / promotion) [1, 3]: stimulatory

Compound: O=[N+]([O-])[O-].[Ag+] [silver nitrate]
effect on XET activity in dot-blot (inhibition / promotion) [1]: inhibitors

Compound: O=C(O)[C@H](O)[C@@H](O)[C@H](O)CO [xylonic acid]
effect on XET activity in dot-blot (inhibition / promotion) [1, 3]: promotion

Compound: tannic acid
effect on XET activity, first radiochemical re-screen of EDI hits [2]: inhibitory

Continued, in another order:

effect on XET activity in dot-blot (inhibition / promotion) [1, 3]: apparent promoters
Compound: COc1cc(O)c2c(c1N)C(=O)c1ccccc1C2=O [1-amino-4-hydroxy-2-methoxyanthracene-9,10-dione]
inhibition of XET activity [2]: 29%
effect on XET activity in radiochemical assays (as summarised in the discussion) [2, 4]: moderately inhibitory

effect on XET activity in dot-blot (inhibition / promotion) [1, 3]: stimulatory
Compound: Cc1cc2nc3cc(C)c(N)cc3[n+](-c3ccccc3)c2cc1N [Safranine O]

effect on XET activity in dot-blot (inhibition / promotion) [1, 3]: promoted
coagulation ('type c' effect) in dot-blot ([1]; EDI collection, 0.4 mg/ml in enzyme mixture): coagulation
Compound: O=c1cc(-c2ccc(O)cc2)oc2cc(O)cc(O)c12 [apigenin]
effect on XET activity in radiochemical assays (as summarised in the discussion) [2, 4]: little effect

IC50 ([2]; read-out: IC50 (concentration required for 50% inhibition of XET activity), radiochemical assay, soluble xyloglucan, laboratory light, 2 h, 20 °C): ~400 µM
Compound: O=C(O[C@@H]1Cc2c(O)cc(O)cc2O[C@@H]1c1ccc(O)c(O)c1)c1cc(O)c(O)c(O)c1 [epicatechin gallate]
effect on XET activity, first radiochemical re-screen of EDI hits [2]: inhibitory

effect on XET activity in dot-blot (inhibition / promotion) [1, 3]: slightly enhanced
Compound: COc1ccc([C@@H]2CC(=O)c3c(O)cc(O)cc3O2)cc1O [hesperetin]

effect on XET activity in dot-blot (inhibition / promotion) [1, 3]: slightly enhanced
Compound: O=C(CCc1ccc(O)cc1)c1c(O)cc(O)cc1O[C@@H]1O[C@H](CO)[C@@H](O)[C@H](O)[C@H]1O [phloridzin]

effect on XET activity in dot-blot (inhibition / promotion) [1, 3]: promotion
Compound: O=C(O)c1ccccc1C(=O)O [phthalic acid]
